Each structure is given as a SMILES string. In brackets after ≈: the same amount, converted by molar mass. Counter-ions that a name gives are not always drawn.

The first assay concerns P. mirabilis 889. The assay can be described thus: MIC against P. mirabilis 889. It counts as cell-based, Proteus mirabilis.
Conditions: not given
An excerpt:
The antibiotic compounds of the present invention are active against a wide range of gram negative and gram positive organisms including E. coli such as, for example ESS, JT4, JT425 and NCTC 10418; Pseudomonas Spp. such Ps.aeruginosa for example 10662 and Dalgleish; Serratia marcescens US32; Klebsiella aerogenes A; Enterobacter cloacae N1; P.mirabilis such as, for example C977 and 889; P.morganii, P.rettgeri; B.subtilis; Staph aureus such as, for example Oxford and Russell; N.catarrhalis 1502; Strep faecalis I; β-Haemolytic Strep CN10. The MIC data included in the following examples is representative of the activity of the compounds of the present invention.
Take `CCN1CCN(C(=O)N[C@@H](C(=O)N[C@]2(NC=O)C(=O)N3C(C(=O)O)=C(CSc4nnnn4C)C[S+]([O-])[C@@H]32)c2ccc(OC(C)=O)c(OC(C)=O)c2)C(=O)C1=O` (single isomer, unassigned) [Example 5 Isomer B, Sodium 7β-[D-2-(3,4-diacetoxyphenyl)-2-[(4-ethyl-2,3-dioxopiperazin-1-yl)carbonylamino]acetamido]-7α-formamido-3-[(1-methyl-1H-tetrazol-5-yl)thiomethyl]-ceph-3-em-4-carboxylate-1-oxide]: the “MIC against P. mirabilis 889” value is 0.06 mg/L.
Take `CCN1CCN(C(=O)N[C@@H](C(=O)N[C@]2(NC=O)C(=O)N3C(C(=O)O)=C(COC(C)=O)C[S+]([O-])[C@@H]32)c2ccc(OC(C)=O)c(OC(C)=O)c2)C(=O)C1=O` (single isomer, unassigned) [Example 1 Isomer A, Sodium 7β-[D-2-[(4-ethyl-2,3-dioxopiperazin-1-yl)carbonylamino]-2-(3,4-diacetoxyphenyl)acetamido]-7α-formamidocephalosporanate-1-oxide]: the “MIC against P. mirabilis 889” value amounted to 0.5 mg/L.
Consider `CCN1CCN(C(=O)N[C@@H](C(=O)N[C@]2(NC=O)C(=O)N3[C@@H](C(=O)O)C(C)(C)[S+]([O-])[C@@H]32)c2ccc(OC(C)=O)c(OC(C)=O)c2)C(=O)C1=O` (single isomer, unassigned; isomer a) [Example 17, Sodium 6β-[D-2-[(4-ethyl-2,3-dioxopiperazin-1-yl)carbonylamino]-2-(3,4-diacetoxyphenyl)acetamido]-6α-formamidopenicillanate-1-oxide, Isomer A], for which the “MIC against P. mirabilis 889” value turned out to be 4.0 mg/L.
Consider `CCN1CCN(C(=O)N[C@@H](C(=O)N[C@]2(NC=O)C(=O)N3C(C(=O)O)=C(COC(C)=O)C[S+]([O-])[C@@H]32)c2ccccc2)C(=O)C1=O` (single isomer, unassigned) [Example 3 Isomer B, Sodium 7β-[D-2-[(4-Ethyl-2,3-dioxopiperazin-1-yl)carbonylamino]-2-phenylacetamido]-7α-formamidocephalosporanate-1-oxide], for which the “MIC against P. mirabilis 889” value was 0.25 mg/L.

Still in this assay, the particulars now being: Proteus mirabilis, 889.
The MIC is the lowest concentration that inhibits growth of the organism. `CCN1CCN(C(=O)N[C@@H](C(=O)N[C@]2(NC=O)C(=O)N3[C@@H](C(=O)O)C(C)(C)[S+]([O-])[C@@H]32)c2ccccc2)C(=O)C1=O` (single isomer, unassigned) [Example 22 Isomer B, Sodium 6β-[D-2-[(4-ethyl-2,3-dioxopiperazin-1-yl)carbonylamino]-2-phenylacetamido]-6α-formamidopenicillanate-1-oxide] gave a minimum inhibitory concentration (MIC) of 1 mg/L.
Still for that read-out and setting: the same measure for `CCN1CCN(C(=O)N[C@@H](C(=O)N[C@]2(NC=O)C(=O)N3[C@@H](C(=O)O)C(C)(C)[S+]([O-])[C@@H]32)c2ccc(OC(C)=O)c(OC(C)=O)c2)C(=O)C1=O` (stereo partly drawn) [Example 4, Sodium 6β-[D-2-[(4-ethyl-2,3-dioxopiperazin-1-yl)carbonylamino]-2-(3,4-diacetoxyphenyl)acetamido]-6α-formamidopenicillanate-1-oxide]: 0.12 mg/L; for `CC(=O)OCC1=C(C(=O)O)N2C(=O)[C@@](NC=O)(NC(=O)Cc3cccs3)[C@H]2[S@+]([O-])C1` [Example 27(c), Sodium 7α-Formamido-7β-thien-2-ylacetamidocephalosporanate-1α-oxide]: 2 mg/L.
Compound `CCN1CCN(C(=O)N[C@@H](C(=O)N[C@]2(NC=O)C(=O)N3C(C(=O)O)=C(CSc4nnnn4CC(=O)O)C[S@@+]([O-])[C@@H]32)c2ccc(OC(C)=O)c(OC(C)=O)c2)C(=O)C1=O` (single isomer, unassigned) [Example 15 Isomer B, 3-[(1-Carboxymethyl-1H-tetrazol-5-yl)thiomethyl]-7β-[D-2(3,4-diacetoxyphenyl)-2-[(4-ethyl-2,3-dioxopiperazin-1-yl)carbonylamino]acetamido]-7α-formamidoceph-3-em-4-carboxylic acid-1-oxide, disodium salt] registered an MIC of 0.25 mg/L.
On to `CCN1CCN(C(=O)N[C@@H](C(=O)N[C@]2(NC=O)C(=O)N3C(C(=O)O)=C(CSc4nnnn4CC(=O)O)C[S@+]([O-])[C@@H]32)c2ccc(OC(C)=O)c(OC(C)=O)c2)C(=O)C1=O` (single isomer, unassigned) [Example 15 Isomer A, 3-[(1-Carboxymethyl-1H-tetrazol-5-yl)thiomethyl]-7β-[D-2(3,4-diacetoxyphenyl)-2-[(4-ethyl-2,3-dioxopiperazin-1-yl)carbonylamino]acetamido]-7α-formamidoceph-3-em-4-carboxylic acid-1-oxide, disodium salt], for which the MIC stood at 0.5 mg/L.
Consider `CCN1CCN(C(=O)N[C@@H](C(=O)N[C@]2(NC=O)C(=O)N3C(C(=O)O)=C(COC(C)=O)C[S+]([O-])[C@@H]32)c2ccccc2)C(=O)C1=O` (single isomer, unassigned) [Example 3 Isomer A, Sodium 7β-[D-2-[(4-Ethyl-2,3-dioxopiperazin-1-yl)carbonylamino]-2-phenylacetamido]-7α-formamidocephalosporanate-1-oxide], for which the MIC was found to be 0.25 mg/L.
The compound `CCN1CCN(C(=O)N[C@@H](C(=O)N[C@]2(NC=O)C(=O)N3C(C(=O)O)=C(CSc4nnnn4C)C[S@+]([O-])[C@@H]32)c2ccc(O)c(O)c2)C(=O)C1=O` [Example 16(d), Sodium 7β-[D-2-(3,4-dihydroxyphenyl)-2-[(4-ethyl-2,3-dioxopiperazin-1-yl)carbonylamino]acetamido]-7α-formamido-3-[(1-methyl-1H-tetrazol-5-yl)thiomethyl]-ceph-3-em-4-carboxylate-1β-oxide] registered an MIC of 1 mg/L.
In turn, `CCN1CCN(C(=O)N[C@@H](C(=O)N[C@]2(NC=O)C(=O)N3C(C(=O)O)=C(CSc4nnnn4C)CS[C@@H]32)c2ccccc2)C(=O)C1=O` [Example 8(b), 7β-[D-2-[(4-Ethyl-2,3-dioxopiperazin-1-yl)carbonylamino]-2-phenylacetamido]-7α-formamido-3-[(1-methyl-1H-tetrazol-5-yl)thiomethyl]ceph-3-em-4-carboxylic acid, sodium salt] had an MIC of 0.125 mg/L.
`CCN1CCN(C(=O)N[C@@H](C(=O)N[C@]2(NC=O)C(=O)N3C(C(=O)O)=C(COC(C)=O)C[S@+]([O-])[C@@H]32)c2ccc(O)cc2)C(=O)C1=O` (single isomer, unassigned) [Example 14 Isomer A, 7β-[D-2-[(4-Ethyl-2,3-dioxopiperazin-1-yl)carbonylamino]-2-(4-hydroxyphenyl)acetamido]-7α-formamidocephalosporanic acid 1-oxide, sodium salt] showed an MIC of 0.25 mg/L.
In the case of `CCN1CCN(C(=O)N[C@@H](C(=O)N[C@]2(NC=O)C(=O)N3C(C(=O)O)=C(CSc4nnnn4C)C[S@@+]([O-])[C@@H]32)c2ccc(O)c(O)c2)C(=O)C1=O` [Example 16(e), Sodium 7β-[D-2-(3,4-dihydroxyphenyl)-2-[(4-ethyl-2,3-dioxopiperazin-1-yl)carbonylamino]acetamido]-7α-formamido-3-[(1-methyl-1H-tetrazol-5-yl)thiomethyl]-ceph-3-em-4-carboxylate-1α-oxide], the MIC worked out at 0.25 mg/L.
Same read-out and setting: with `CCN1CCN(C(=O)N[C@@H](C(=O)N[C@]2(NC=O)C(=O)N3C(C(=O)O)=C(COC(C)=O)C[S@@+]([O-])[C@@H]32)c2ccc(O)cc2)C(=O)C1=O` (single isomer, unassigned) [Example 14 Isomer B, 7β-[D-2-[(4-Ethyl-2,3-dioxopiperazin-1-yl)carbonylamino]-2-(4-hydroxyphenyl)acetamido]-7α-formamidocephalosporanic acid 1-oxide, sodium salt] the figure was 0.12 mg/L.
As to `CCN1CCN(C(=O)N[C@@H](C(=O)N[C@]2(NC=O)C(=O)N3C(C(=O)[O-])=C(C[n+]4ccccc4)CS[C@@H]32)c2ccccc2)C(=O)C1=O` [Example 7(c), 7β-[D-2-[(4-Ethyl-2.3-dioxopiperazin-1-yl)carbonylamino]-2-phenylacetamido]-7α-formamido-3-pyridiniummethyl-ceph-3-em-4-carboxylate], the MIC was found to be 0.5 mg/L (≈ 0.787 µM).
For `CC1(C)[C@H](C(=O)O)N2C(=O)[C@@](NC=O)(NC(=O)[C@H](N)c3ccccc3)[C@H]2[S+]1[O-]` (single isomer, unassigned; isomer b) [Example 23, 6β-(D-2-Amino-2-phenylacetamido)-6α-formamidopenicillanic acid-1-oxide, isomer B], the MIC is 32 mg/L (≈ 78.3 µM).
The same measure, in the same setting: the same measure for `CCN1CCN(C(=O)N[C@@H](C(=O)N[C@]2(NC=O)C(=O)N3C(C(=O)O)=C(CSc4nnnn4C)C[S@@+]([O-])[C@@H]32)c2ccccc2)C(=O)C1=O` [Example 8(d), Sodium 7β-[D-2-[(4-Ethyl-2,3-dioxopiperazin-1-yl)carbonylamino]-2-phenylacetamido]-7α-formamido-3-[(1-methyl-1H-tetrazol-5-yl)thiomethyl]ceph-3-em-4-carboxylate-1α-oxide]: 0.25 mg/L.
Same read-out and setting: with `CCN1CCN(C(=O)N[C@@H](C(=O)N[C@]2(NC=O)C(=O)N3C(C(=O)O)=C(COC(C)=O)CS(=O)(=O)[C@@H]32)c2ccccc2)C(=O)C1=O` [Example 2, Sodium 7β-[D,2-([4-Ethyl-2,3-dioxopiperazin-1-yl]carbonylamino)-2-phenylacetamido]-7α-formamidocephalosporanate-1,1-dioxide] the figure was 8 mg/L; with `CCN1CCN(C(=O)N[C@@H](C(=O)N[C@]2(NC=O)C(=O)N3C(C(=O)[O-])=C(C[n+]4ccccc4)C[S+]([O-])[C@@H]32)c2ccccc2)C(=O)C1=O` (stereo partly drawn) [Example 7, 7β-[D-2-[(4-Ethyl-2,3-dioxopiperazin-1-yl)carbonylamino]-2-phenylacetamido]-7α-formamido-3-pyridiniummethyl-ceph-3-em-4-carboxylate-1-oxide], 8 mg/L (≈ 12.3 µM).

These data come from patent publication US4670431A, “Beta-lactam antibacterial agents” (Beecham Group p.l.c., priority 1983, dated 1987).
